# Test results reported in article PMC10041525, “New Dual Inhibitors of Bacterial Topoisomerases with Broad-Spectrum Antibacterial Activity and In Vivo Efficacy against Vancomycin-Intermediate Staphylococcus aureus” (Journal of Medicinal Chemistry, 2023).
# Where two headings read alike, the source gives them in different places.
# Test system: 100 A. baumannii strains (50 MDR, 50 non-MDR)
# Test: MIC broth microdilution at IHMA Europe, panel of 100 strains
# Type: cell-based
# Conditions: Acinetobacter baumannii, read-out: MIC
smiles,measurement,setting,value
"CN(C)c1cc(NC(=O)CNC(C)(C)C)c(O)c2c1C[C@H]1C[C@H]3[C@H](N(C)C)C(O)=C(C(N)=O)C(=O)[C@@]3(O)C(O)=C1C2=O [Tigecycline, tigecycline]",MIC,"A. baumannii IHMA 1769393, Lithuania 2018, Non-MDR",0.25 µg/mL
same,MIC,"A. baumannii IHMA 1769782, Israel 2018, MDR",4 µg/mL
same,MIC,"A. baumannii IHMA 1769910, Israel 2018, Non-MDR",2 µg/mL
same,MIC,"A. baumannii IHMA 1790317, Czech Republic 2018, Non-MDR",0.06 µg/mL
same,MIC,"A. baumannii IHMA 1790916, Romania 2018, Non-MDR",0.12 µg/mL
same,MIC,"A. baumannii IHMA 1791877, Israel 2018, MDR",2 µg/mL
same,MIC,"A. baumannii IHMA 1792961, Jordan 2018, MDR",2 µg/mL
same,MIC,"A. baumannii IHMA 1795669, Tunisia 2018, Non-MDR",0.06 µg/mL
same,MIC,"A. baumannii IHMA 1814276, Lebanon 2018, MDR",4 µg/mL
same,MIC,"A. baumannii IHMA 1815198, Kuwait 2018, MDR",4 µg/mL
same,MIC,"A. baumannii IHMA 1815856, Israel 2018, MDR",2 µg/mL
same,MIC,"A. baumannii IHMA 1821468, South Africa 2018, Non-MDR",0.25 µg/mL
same,MIC,"A. baumannii IHMA 1829500, Georgia 2018, Non-MDR",0.5 µg/mL
same,MIC,"A. baumannii IHMA 1830924, United Kingdom 2018, Non-MDR",0.5 µg/mL
same,MIC,"A. baumannii IHMA 1849819, Kuwait 2018, MDR",4 µg/mL
same,MIC,"A. baumannii IHMA 1849829, Kuwait 2018, Non-MDR",0.25 µg/mL
same,MIC,"A. baumannii IHMA 1857118, Slovenia 2018, Non-MDR",0.25 µg/mL
same,MIC,"A. baumannii IHMA 1863631, France 2018, Non-MDR",0.25 µg/mL
same,MIC,"A. baumannii IHMA 1870054, United States 2018, Non-MDR",0.12 µg/mL
same,MIC,"A. baumannii IHMA 1884428, Italy 2018, Non-MDR",0.25 µg/mL
same,MIC,"A. baumannii IHMA 1884990, Germany 2018, Non-MDR",0.12 µg/mL
same,MIC,"A. baumannii IHMA 1900538, Turkey 2018, Non-MDR",0.25 µg/mL
same,MIC,"A. baumannii IHMA 1913773, Kenya 2018, Non-MDR",0.25 µg/mL
same,MIC,"A. baumannii IHMA 1926285, Qatar 2018, Non-MDR",0.12 µg/mL
same,MIC,"A. baumannii IHMA 1926288, Qatar 2018, MDR",4 µg/mL
same,MIC,"A. baumannii IHMA 1957343, Portugal 2019, Non-MDR",0.12 µg/mL
same,MIC,"A. baumannii IHMA 1963732, Turkey 2019, MDR",4 µg/mL
same,MIC,"A. baumannii IHMA 1967860, Spain 2019, Non-MDR",4 µg/mL
same,MIC,"A. baumannii IHMA 1971673, Latvia 2019, MDR",2 µg/mL
same,MIC,"A. baumannii IHMA 1975075, Israel 2019, Non-MDR",0.5 µg/mL
same,MIC,"A. baumannii IHMA 1977077, Kuwait 2019, Non-MDR",0.5 µg/mL
same,MIC,"A. baumannii IHMA 1983151, Greece 2019, MDR",2 µg/mL
same,MIC,"A. baumannii IHMA 1984665, Lithuania 2019, MDR",4 µg/mL
same,MIC,"A. baumannii IHMA 1986678, Turkey 2019, Non-MDR",0.5 µg/mL
same,MIC,"A. baumannii IHMA 1986738, Turkey 2019, MDR",4 µg/mL
same,MIC,"A. baumannii IHMA 1987162, Croatia 2019, MDR",2 µg/mL
same,MIC,"A. baumannii IHMA 1993615, Turkey 2019, MDR",0.5 µg/mL
same,MIC,"A. baumannii IHMA 1994284, Italy 2019, MDR",1 µg/mL
same,MIC,"A. baumannii IHMA 1995161, Czech Republic 2019, Non-MDR",0.12 µg/mL
same,MIC,"A. baumannii IHMA 1997936, Morocco 2019, Non-MDR",0.25 µg/mL
same,MIC,"A. baumannii IHMA 1999178, Belgium 2019, Non-MDR",0.25 µg/mL
same,MIC,"A. baumannii IHMA 2003279, Turkey 2019, MDR",2 µg/mL
same,MIC,"A. baumannii IHMA 2014367, Jordan 2019, Non-MDR",0.12 µg/mL
same,MIC,"A. baumannii IHMA 2014931, South Africa 2019, Non-MDR",0.25 µg/mL
same,MIC,"A. baumannii IHMA 2019315, Romania 2019, Non-MDR",0.12 µg/mL
same,MIC,"A. baumannii IHMA 2020360, Croatia 2019, MDR",4 µg/mL
same,MIC,"A. baumannii IHMA 2031511, Greece 2019, Non-MDR",0.12 µg/mL
same,MIC,"A. baumannii IHMA 2031524, Greece 2019, MDR",1 µg/mL
same,MIC,"A. baumannii IHMA 2034657, Tunisia 2019, Non-MDR",0.25 µg/mL
same,MIC,"A. baumannii IHMA 2035089, Serbia 2019, MDR",4 µg/mL
same,MIC,"A. baumannii IHMA 2035134, Serbia 2019, Non-MDR",0.12 µg/mL
same,MIC,"A. baumannii IHMA 2038976, Hungary 2019, MDR",2 µg/mL
same,MIC,"A. baumannii IHMA 2051503, Serbia 2019, MDR",2 µg/mL
same,MIC,"A. baumannii IHMA 2058329, Slovenia 2019, Non-MDR",0.25 µg/mL
same,MIC,"A. baumannii IHMA 2065587, France 2019, Non-MDR",0.25 µg/mL
same,MIC,"A. baumannii IHMA 2099294, United Kingdom 2019, Non-MDR",0.5 µg/mL
same,MIC,"A. baumannii IHMA 2129256, Qatar 2019, Non-MDR",0.12 µg/mL
